Assay results: paper PMC3469158, “Hesperidin-3′-O-Methylether Is More Potent than Hesperidin in Phosphodiesterase Inhibition and Suppression of Ovalbumin-Induced Airway Hyperresponsiveness” (Evidence-based Complementary and Alternative Medicine : eCAM, 2012)
Like-named read-outs stand apart in the source and are kept apart here.

What was measured:
[1] = tested on: IgE and IgG2a in serum and BALF; experiment: Total and ovalbumin-specific IgE and total IgG2a in serum and BALF (ELISA); format: in vivo, BABL/c mice
Protocol: (§1) According to the schedule (Figure 2), ten female BABL/c mice in each group were sensitized by an intraperitoneal (i.p.) injection of 20 μg of ovalbumin emulsified in 2.25 mg of an aluminum hydroxide gel, prepared from aluminum sulfate hexadecahydrate, in a total volume of 100 μL on days 0 and 14. Mice were challenged via the airway using 1% ovalbumin in saline for 30 min on days 28, 29, and 30 by ultrasonic nebulization. After the last ovalbumin challenge, AHR was assessed on day 32 (48 h after 1% ovalbumin provocation) in each group. Each group of mice was orally (p.o.) administered the vehicle (control), 30∼100 μmol/kg of hesperidin or 10∼100 μmol/kg of hesperidin-3′-O-methylether 2 h before and 6 and 24 h after ovalbumin provocation. For comparison, sham-treated mice were challenged with saline instead of 1% ovalbumin (nonchallenged). The vehicle, a mixture of DMSO : PEG 400 : saline (1 : 1 : 8, v/v), hesperidin, or hesperidin-3′-O-methylether was administered (p.o.) at a volume of 0.01 mL/g of body weight. AHR was assessed by barometric plethysmography using a whole-body plethysmograph (WBP) and analyzed using software of Life Science Suite P3 Analysis Modules (Gould, LDS Test and Measurement LLC, Valley View, OH, USA) in unrestrained animals. Mice were placed into the main chamber of the WBP, and the baseline enhanced pause (P enh) value was determined. Then mice were first nebulized with phosphate-buffered saline (PBS), and subsequently with increasing doses (6.25∼50 mg/mL) of methacholine for 3 min for each nebulization, followed by readings of breathing parameters for 3 min after each nebulization to determine P enh values. Twenty-four hours after P enh determination, these mice were anesthetized with pentobarbital (50 mg/kg, i.p.), and the lungs were lavaged via a tracheal tube with PBS (1 × 1.0 mL, 37°C). After lavage, blood was collected from the jugular vein and allowed to sit so that it would coagulate. The collected bronchoalveolar lavage fluid (BALF) and coagulated blood were respectively centrifuged at 630 g for 7 min and at 3700 g for 10 min at 4°C. After centrifugation, the BALF and serum supernatants were stored at −20°C until determinations of cytokines, including interleukin (IL)-2, IL-4, IL-5, tumor necrosis factor (TNF)-α, and interferon (IFN)-γ by flow cytometric methods using mouse Th1/Th2 cytokine CBA kits, and of a total immunoglobulin (Ig)E and IgG2a using ELISA kits (Pharmingen, San Diego, CA, USA) according to the respective recommendations of the manufacturers. Ovalbumin-specific IgE was measured as described previously. Wells were coated with 100 μL of ovalbumin (20 μg/mL) instead of the capture antibody. Levels are expressed in arbitrary units, where 1 arbitrary unit equals the optical density of the sample divided by the optical density of unchallenged mouse serum or BALF (standard). The BALF pellet was resuspended in ACK lysing buffer (1.658 g NH4Cl, 0.2 g KHCO3, and […] EDTA in 200 mL of water) to lyse the residual erythrocytes in each sample. The number of inflammatory cells was counted using a hemocytometer (Hausser Scientific, Horsham, PA, USA). Cytospin slides were stained and cell differentials were determined in a blinded fashion by counting at least 100 cells under light microscopy. All undetectable data (<1 pg/mL) of cytokines were taken as 0.5 pg/mL.

PDE4 [2] = experiment: PDE4 activity in homogenate of guinea pig lungs or hearts (PDE4L); format: biochemical; details: guinea pig lung or heart homogenate; read-out: IC50 for PDE4 inhibition (PDE4L value)
Protocol: (§2) Activities of PDE1∼5 in the homogenate of guinea pig lungs or hearts were measured by a two-step procedure according to the previous method, using cAMP with [^3 H]-cAMP or cGMP with [^3 H]-cGMP as substrates. The enzyme preparation (25 μL) was incubated for 30 min at 37°C in a total assay volume of 100 μL containing 50 mM Tris-HCl (pH 7.4), 3 mM MgCl2, 1 mM dithiothreitol, 0.05% BSA, and 1 μM cAMP with 0.2 μCi [^3 H]-cAMP as a substrate alone or in the presence of 0.1 unit calmodulin with 10 μM CaCl2 or 5 μM cGMP, and 1 μM cGMP with 0.2 μCi [^3 H]-cGMP as another substrate alone or in the presence of 0.1 unit calmodulin with 10 μM CaCl2. […] The reagents and homogenate were mixed on ice, and the reaction was initiated by transferring the mixture to a water bath at 37°C. Following a 30 min incubation, the reaction was stopped by transferring the reaction vessel to a bath of boiling water for 3 min. After cooling on ice, 20 μL of a 1 mg/mL solution of Crotalus atrox snake venom was added to the reaction mixture, and the mixture was incubated at 37°C for 10 min. Unreacted [^3 H]-cAMP or [^3 H]-cGMP was removed by the addition of 500 μL of a 1-in-1 Tris-HCl (40 mM) buffer suspension of Dowex resin (1 × 2-400) with incubation on ice for 30 min. Each tube was then centrifuged at 3700 g for 2 min, and 100 μL of the supernatant was removed for liquid scintillation counting.

cytokines in BALF = experiment: Cytokine levels in BALF of sensitized and challenged mice (flow cytometric CBA); format: in vivo, BABL/c mice
Protocol: as §1

[3] = tested on: inflammatory cells in BALF; experiment: Inflammatory cell counts in BALF of sensitized and challenged mice; format: in vivo, BABL/c mice
Protocol: as §1

[4] = tested on: airway hyperresponsiveness in ovalbumin-sensitized and challenged mice; experiment: Ovalbumin-induced airway hyperresponsiveness, Penh by whole-body plethysmography; format: in vivo, BABL/c mice; details: for Penh value at the baseline / Penh value with PBS nebulization: sensitized and challenged mice
Protocol: as §1

PDE3 = PDE3 activity in homogenate of guinea pig lungs or hearts; format: biochemical; details: guinea pig lung or heart homogenate; read-out: IC50 for PDE3 inhibition
Protocol: as §2

[5] = tested on: high-affinity rolipram-binding sites (HARBSs), PDE4H; experiment: Displacement of [3H]-rolipram from high-affinity rolipram-binding sites of brain cell membranes (PDE4H); set-up: species or system guinea pig; details: for EC50: 2 nM [3H]-rolipram, guinea pig brain cell membranes, read-out: EC50 (PDE4H) for displacing [3H]-rolipram binding; for PDE4H/PDE4L ratio: therapeutic ratio, EC50 (PDE4H) / IC50 (PDE4L)
Protocol: When the above-mentioned guinea pigs were sacrificed, the whole brains were removed and homogenized with a glass/Teflon homogenizer (Glas-Col, Terre Haute, IN, USA) in 10 volumes of cold medium (pH 6.5) containing 20 mM Bis-Tris, 2 mM benzamidine, 2 mM EDTA, 50 mM sodium chloride, 0.1 mM PMSF, and 1 mM dithiothreitol. At 4°C, the homogenate was centrifuged at 170 g for 5 min to remove connective tissues and blood vessels. The suspended homogenate was then recentrifuged at 40,000 g for 30 min to separate the cytosolic and particulate portions. The particulate portion was resuspended in a suspension at a concentration of 400 mg/mL (wet weight/volume), after washing three times with homogenizing buffer. The particulate portion mainly consisted of cell membranes. […] Briefly, the reaction buffer consisted of 50 mM Tris-HCl and 5 mM MgCl2 (pH 7.5). […] After 1 h, the reaction was terminated by moving the reaction vessel into crushed ice. Then the reaction mixture was transferred onto Whatman GF/B glass-fiber filters, which were soaked in a 0.3% polyethyleneimine solution in a mini-funnel.

PDE1 = PDE1 activity in homogenate of guinea pig lungs or hearts ([3H]-cAMP/[3H]-cGMP two-step procedure); format: biochemical; details: guinea pig lung or heart homogenate; read-out: IC50 for PDE1 inhibition
Protocol: as §2

[6] = tested on: xylazine/ketamine-induced anesthesia; details: administered s.c.; cited from earlier work
PDE4 [7] = details: read-out: IC50 for PDE4 inhibition; cited from earlier work
[8] = tested on: duration of xylazine/ketamine-induced anesthesia; experiment: Xylazine/ketamine-induced anesthesia (surrogate of emesis); format: in vivo, BALB/c mice; details: 0.25 h before anesthesia, mice
Protocol: According to a previously described method and modified by us, hesperidin, hesperidin-3′-O-methylether (each 300 μmol/kg, subcutaneously (s.c.)), or Ro 20-1724 (0.01∼1 μmol/kg, s.c.), a reference drug, was, respectively, injected into 8∼12-week-old female BALB/c mice 1, 1 or 0.25 h prior to an i.p. injection of xylazine (10 mg/kg)/ketamine (70 mg/kg). The vehicle (control) for hesperidin, hesperidin-3′-O-methylether, or Ro 20-1724 was a mixture of DMSO : PEG 400 : saline (1 : 1 : 8, v/v). After the loss of the righting reflex (i.e., when a mouse remained on its back and no longer spontaneously righted itself to a prone position), the duration of anesthesia was measured until its return as the endpoint.

COc1ccc(C2CC(=O)c3c(O)cc(O[C@@H]4O[C@H](CO[C@@H]5O[C@@H](C)[C@H](O)[C@@H](O)[C@H]5O)[C@@H](O)[C@H](O)[C@H]4O)cc3O2)cc1OC (stereo partly drawn) [hesperidin-3′-O-methylether]
level of total IgG2a in the serum ([1]; 30 μmol/kg p.o.): enhanced | total and OVA-specific IgE levels in the serum and BALF ([1]; 30 μmol/kg p.o.): significantly suppressed | levels of total and ovalbumin-specific IgE in the serum and BALF ([1]; 30∼100 μmol/kg p.o.): dose-dependently and significantly suppressed | reduction of total IgG2a level in the serum ([1]; 30∼100 μmol/kg p.o.): dose-dependently and significantly reversed | IC50 (PDE4 [2]): 13.9 ± 2.4 µM | level of IFN-γ in BALF compared to the control (cytokines in BALF; 100 μmol/kg p.o.): significantly enhanced | increases in levels of IL-2, IL-4, TNF-α in BALF (cytokines in BALF; 10∼100 μmol/kg p.o.): significantly suppressed | increase in level of IL-5 in BALF (cytokines in BALF; 30∼100 μmol/kg p.o.): significantly suppressed | numbers of all types of inflammatory cells in BALF ([3]; 10 μmol/kg p.o.): unaffected | numbers of all inflammatory cells examined in BALF ([3]; 30 μmol/kg p.o.): significantly suppressed | increases in numbers of total inflammatory cells, macrophages, lymphocytes, neutrophils, and eosinophils in BALF ([3]; 30∼100 μmol/kg p.o.): significantly suppressed | Penh value at the baseline ([4]; 10 μmol/kg p.o.): 2.41 ± 0.05 | Penh value with PBS nebulization ([4]; 10 μmol/kg p.o.): 2.41 ± 0.06 | suppression of AHR ([4]; 30 μmol/kg p.o.): significantly suppressed AHR | Penh value at the baseline ([4]; 30 μmol/kg p.o.): 2.38 ± 0.06 | Penh value with PBS nebulization ([4]; 30 μmol/kg p.o.): 2.42 ± 0.05 | Penh value at the baseline ([4]; 100 μmol/kg p.o.): 2.41 ± 0.05 | Penh value with PBS nebulization ([4]; 100 μmol/kg p.o.): 2.39 ± 0.06 | enhancement of Penh values induced by 25 and 50 mg/mL methacholine ([4]; 30∼100 μmol/kg p.o., vs control (vehicle)): significantly attenuated | IC50 (PDE3): 13.2 ± 0.9 µM | EC50 [5]: 218 ± 32.1 µM | PDE4H/PDE4L ratio [5]: 15.7 | IC50 (PDE1): 13.6 ± 2.3 µM

COc1ccc([C@@H]2CC(=O)c3c(O)cc(O)cc3O2)cc1O [hesperetin]
xylazine/ketamine-induced anesthesia [6]: not influence | IC50 (PDE4 [7]): 28.2 µM

CCOC(=O)C1=C[C@]2(CC)CCCN3CCc4c(n1c1ccccc41)[C@@H]32 [vinpocetine, reference compound]
IC50 (PDE1): 30.8 ± 1.1 µM

Cc1[nH]c(=O)c(C#N)cc1-c1ccncc1 [milrinone, reference compound]
IC50 (PDE3): 2.7 ± 0.8 µM

COc1cc(O)c2c(c1)O[C@H](c1ccc(OC)c(OC)c1)CC2=O [hesperetin-7,3′-O-dimethylether]
IC50 (PDE4 [7]): 3 µM

CCCCOc1cc(CC2CNC(=O)N2)ccc1OC (stereo not drawn) [Ro 20-1724, 4-(3-butoxy-4-methoxybenzyl)-2-imidazolidinone, reference compound]
duration of xylazine/ketamine-induced anesthesia ([8]; 0.01∼1 μmol/kg s.c.): dose-dependently shortened | duration of xylazine/ketamine-induced anesthesia ([8]; 0.03∼1 μmol/kg s.c.): significantly shortened | IC50 (PDE4 [2]): 3.5 ± 0.2 µM | EC50 [5]: 0.105 ± 0.0131 µM | PDE4H/PDE4L ratio [5]: 0.03
